Reference: patent US7635572B2, “Methods for conducting assays for enzyme activity on protein microarrays” (Life Technologies Corporation, priority 2004, dated 2009)
Where two headings read alike, the source gives them in different places.

Experiments:
Assay in all cases: Further analysis of a plurality of inhibitors and a plurality of kinases on microarray (Example IX, Table 5);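 further: inhibition of each kinase by the inhibitors is given as a qualitative level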
Format in all cases: biochemical
[1] = target: plurality of kinases (Table 5) (Homo sapiens, UniProt P06239)
Sequence of plurality of kinases (Table 5) (Homo sapiens, UniProt P06239) (P06239 whole entry): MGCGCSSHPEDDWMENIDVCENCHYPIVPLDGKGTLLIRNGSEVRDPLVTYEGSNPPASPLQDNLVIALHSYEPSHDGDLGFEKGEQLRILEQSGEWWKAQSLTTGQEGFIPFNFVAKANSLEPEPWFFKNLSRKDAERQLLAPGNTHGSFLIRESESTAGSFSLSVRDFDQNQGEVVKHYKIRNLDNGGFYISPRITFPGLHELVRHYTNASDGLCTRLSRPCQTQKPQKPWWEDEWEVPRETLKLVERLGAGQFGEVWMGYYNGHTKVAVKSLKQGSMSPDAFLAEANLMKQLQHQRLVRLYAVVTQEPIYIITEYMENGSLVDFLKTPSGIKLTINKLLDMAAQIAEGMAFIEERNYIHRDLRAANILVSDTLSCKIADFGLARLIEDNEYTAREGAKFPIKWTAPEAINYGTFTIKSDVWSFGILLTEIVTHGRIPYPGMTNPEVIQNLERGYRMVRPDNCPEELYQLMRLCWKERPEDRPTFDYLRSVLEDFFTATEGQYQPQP

[2] = target: T1, plurality of kinases (Table 5) (Homo sapiens, UniProt P54762)
T1 sequence (P54762 18-984): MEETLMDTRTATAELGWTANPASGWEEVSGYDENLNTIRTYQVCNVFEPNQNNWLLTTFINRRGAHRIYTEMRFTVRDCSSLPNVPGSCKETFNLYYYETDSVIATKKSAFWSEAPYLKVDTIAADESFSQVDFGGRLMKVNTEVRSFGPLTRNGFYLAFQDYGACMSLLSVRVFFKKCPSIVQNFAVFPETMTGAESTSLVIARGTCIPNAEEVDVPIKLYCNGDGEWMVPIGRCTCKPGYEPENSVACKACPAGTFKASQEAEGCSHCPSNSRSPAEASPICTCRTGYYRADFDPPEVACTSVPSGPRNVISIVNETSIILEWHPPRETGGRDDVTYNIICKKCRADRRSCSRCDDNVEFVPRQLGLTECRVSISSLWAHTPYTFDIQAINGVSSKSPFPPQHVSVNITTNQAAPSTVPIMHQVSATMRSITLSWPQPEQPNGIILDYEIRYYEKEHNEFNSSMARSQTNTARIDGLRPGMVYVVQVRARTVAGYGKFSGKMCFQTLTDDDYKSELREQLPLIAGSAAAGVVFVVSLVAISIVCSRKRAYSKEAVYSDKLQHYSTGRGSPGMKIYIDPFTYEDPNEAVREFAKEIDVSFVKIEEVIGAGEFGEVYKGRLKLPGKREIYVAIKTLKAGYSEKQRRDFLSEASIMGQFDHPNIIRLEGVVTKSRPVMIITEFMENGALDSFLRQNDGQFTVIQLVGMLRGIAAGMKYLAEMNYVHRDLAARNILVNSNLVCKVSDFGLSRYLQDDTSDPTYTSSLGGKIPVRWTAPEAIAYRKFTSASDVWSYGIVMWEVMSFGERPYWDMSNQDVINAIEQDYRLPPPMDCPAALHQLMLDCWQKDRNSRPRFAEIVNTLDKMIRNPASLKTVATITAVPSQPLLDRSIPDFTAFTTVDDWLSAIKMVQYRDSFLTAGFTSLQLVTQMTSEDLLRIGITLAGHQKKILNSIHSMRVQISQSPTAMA

[3] = target: T2, plurality of kinases (Table 5) (Homo sapiens, UniProt Q99759); conditions: plate A1
T2 sequence (Q99759 1-626): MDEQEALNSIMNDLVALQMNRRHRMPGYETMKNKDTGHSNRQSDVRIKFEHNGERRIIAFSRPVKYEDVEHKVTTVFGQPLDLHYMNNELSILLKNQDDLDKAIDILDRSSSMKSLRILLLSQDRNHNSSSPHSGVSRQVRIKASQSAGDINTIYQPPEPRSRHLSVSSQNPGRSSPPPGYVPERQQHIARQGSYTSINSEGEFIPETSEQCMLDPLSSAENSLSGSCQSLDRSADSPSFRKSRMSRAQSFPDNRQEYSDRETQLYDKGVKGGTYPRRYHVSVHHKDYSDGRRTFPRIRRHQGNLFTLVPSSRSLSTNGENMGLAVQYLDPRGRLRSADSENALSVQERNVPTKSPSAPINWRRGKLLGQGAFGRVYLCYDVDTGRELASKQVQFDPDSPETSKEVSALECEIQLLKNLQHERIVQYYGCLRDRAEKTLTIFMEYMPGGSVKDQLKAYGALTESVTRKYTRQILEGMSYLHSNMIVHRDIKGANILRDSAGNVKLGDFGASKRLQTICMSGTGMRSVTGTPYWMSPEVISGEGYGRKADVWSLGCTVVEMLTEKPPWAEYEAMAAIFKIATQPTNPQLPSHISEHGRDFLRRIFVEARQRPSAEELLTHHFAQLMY

[4] = target: T3, plurality of kinases (Table 5) (Homo sapiens, UniProt P51813); conditions: plate B12; inhibitor 100 uM
T3 sequence (P51813 1-675): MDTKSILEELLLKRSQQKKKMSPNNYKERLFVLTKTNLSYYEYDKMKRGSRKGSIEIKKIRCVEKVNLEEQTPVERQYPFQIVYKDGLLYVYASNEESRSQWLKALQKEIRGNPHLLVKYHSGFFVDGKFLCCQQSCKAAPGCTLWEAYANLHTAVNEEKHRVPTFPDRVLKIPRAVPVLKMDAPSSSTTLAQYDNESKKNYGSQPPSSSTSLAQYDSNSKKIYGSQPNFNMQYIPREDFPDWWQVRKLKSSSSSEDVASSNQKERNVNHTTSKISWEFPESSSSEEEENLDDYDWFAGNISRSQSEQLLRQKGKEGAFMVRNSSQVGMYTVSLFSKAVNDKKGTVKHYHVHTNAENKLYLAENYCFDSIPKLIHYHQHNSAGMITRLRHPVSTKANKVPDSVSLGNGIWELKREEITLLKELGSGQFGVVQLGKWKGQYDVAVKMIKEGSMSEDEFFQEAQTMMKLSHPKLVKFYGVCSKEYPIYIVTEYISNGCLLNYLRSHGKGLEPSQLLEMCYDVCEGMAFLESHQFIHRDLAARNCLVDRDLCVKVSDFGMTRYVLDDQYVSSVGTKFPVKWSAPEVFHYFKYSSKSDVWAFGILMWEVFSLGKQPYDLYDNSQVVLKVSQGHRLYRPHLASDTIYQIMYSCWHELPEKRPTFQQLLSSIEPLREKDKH

[5] = target: plurality of kinases (Table 5) (Homo sapiens, UniProt O75914); conditions: plate D4
Sequence of plurality of kinases (Table 5) (Homo sapiens, UniProt O75914) (O75914 whole entry): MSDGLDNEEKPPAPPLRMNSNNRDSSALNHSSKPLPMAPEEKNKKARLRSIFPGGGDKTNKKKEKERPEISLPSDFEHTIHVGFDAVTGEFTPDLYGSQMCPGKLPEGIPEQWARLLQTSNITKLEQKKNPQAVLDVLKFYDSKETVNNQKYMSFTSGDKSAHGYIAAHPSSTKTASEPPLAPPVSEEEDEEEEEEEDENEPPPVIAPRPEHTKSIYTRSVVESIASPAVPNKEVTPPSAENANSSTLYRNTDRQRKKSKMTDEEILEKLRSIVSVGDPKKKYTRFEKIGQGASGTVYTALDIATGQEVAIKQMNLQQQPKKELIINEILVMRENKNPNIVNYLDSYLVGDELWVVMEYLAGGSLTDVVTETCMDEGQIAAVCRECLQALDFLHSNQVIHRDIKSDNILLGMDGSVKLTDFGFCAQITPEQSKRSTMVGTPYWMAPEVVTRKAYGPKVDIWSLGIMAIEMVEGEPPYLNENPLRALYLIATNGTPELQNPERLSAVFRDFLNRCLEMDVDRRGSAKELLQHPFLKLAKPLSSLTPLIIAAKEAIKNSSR

[6] = target: plurality of kinases (Table 5) (Homo sapiens, UniProt P07948)
Sequence of plurality of kinases (Table 5) (Homo sapiens, UniProt P07948) (P07948 whole entry): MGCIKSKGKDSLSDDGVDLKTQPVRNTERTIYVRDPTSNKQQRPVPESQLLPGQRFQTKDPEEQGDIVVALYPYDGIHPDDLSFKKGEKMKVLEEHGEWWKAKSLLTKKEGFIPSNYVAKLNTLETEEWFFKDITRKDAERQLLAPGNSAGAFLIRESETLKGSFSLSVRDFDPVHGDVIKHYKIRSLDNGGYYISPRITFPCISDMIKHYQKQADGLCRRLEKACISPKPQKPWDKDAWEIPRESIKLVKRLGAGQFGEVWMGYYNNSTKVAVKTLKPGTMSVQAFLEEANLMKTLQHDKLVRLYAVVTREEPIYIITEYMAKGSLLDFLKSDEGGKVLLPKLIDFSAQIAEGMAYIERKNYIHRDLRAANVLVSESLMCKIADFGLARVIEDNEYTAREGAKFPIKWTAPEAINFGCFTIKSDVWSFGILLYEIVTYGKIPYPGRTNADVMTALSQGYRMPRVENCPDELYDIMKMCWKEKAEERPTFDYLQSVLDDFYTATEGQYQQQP

[7] = plate A5, Domain 0, inhibitor 100 uM

Structure (SMILES) | Inhibition level, LCK ([1]; plate A6, inhibitor 100 uM) | Inhibition level, EPHB1 ([2]; plate B8, inhibitor 100 uM) | Inhibition level, MAP3K3 ([3]; inhibitor 100 uM) | Inhibition level, BMX [4] | Inhibition level, PAK3 ([5]; inhibitor 100 uM) | Inhibition level, LYN [6, 7] | other results
N#C/C(=C/c1ccc(O)c(O)c1)C(=O)NCc1ccccc1 [AG 490] | 2 | 0 | 2 | 0 | 1 | 2 | 
COc1cc2ncnc(Nc3cccc(Cl)c3)c2cc1OC [AG 1478] |  | 2 | 2 | 1 | 2 | 2 | Inhibition level, LCK [1]: 2
O=c1c(-c2ccc(O)cc2)coc2cc(O)cc(O)c12 [Genistein] | 2 | 1 | 2 | 0 | 2 | 2 | Inhibition level, LCK ([1]; plate A6, Genistein <3.7 mM): 0; Inhibition level, EPHB1 ([2]; plate B8, Genistein, conc. not given): 0; Inhibition level, MAP3K3 ([3]; Genistein <3.7 mM): 2; Inhibition level, PAK3 ([5]; Genistein, conc. not given): 0; Inhibition level, LYN ([6]; plate A5, Domain 0, Genistein <3.7 mM): 2
O=S(=O)(NCCNC/C=C/c1ccc(Br)cc1)c1cccc2cnccc12 [H-89] | 2 | 1 | 2 | 1 | 2 | 2 | 
CC(C)(C)n1nc(-c2ccc(Cl)cc2)c2c(N)ncnc21 [PP2] |  | 2 | 2 | 2 | 2 | 2 | 
O=c1c(O)c(-c2ccc(O)c(O)c2)oc2cc(O)cc(O)c12 [Quercetin] |  | 0 | 0 | 0 | 2 | 2 | 
Cn1cc(C2=C(c3cn(CCCSC(=N)N)c4ccccc34)C(=O)NC2=O)c2ccccc21 [Ro-31-8220] | 2 | 0 | 0 | 2 | 2 | 2 | Inhibition level, LCK ([1]; plate A6, Ro-31-8220 90 uM): 0; Inhibition level, EPHB1 ([2]; plate B8, Ro-31-8220, conc. not given): 2; Inhibition level, MAP3K3 ([3]; Ro-31-8220 90 uM): 2; Inhibition level, PAK3 ([5]; Ro-31-8220, conc. not given): 2; Inhibition level, LYN ([6]; plate A5, Domain 0, Ro-31-8220 90 uM): 0
CC(=O)c1c(O)c(C)c(O)c(Cc2c(O)c3c(c(C(=O)/C=C/c4ccccc4)c2O)OC(C)(C)C=C3)c1O [Rottlerin (Mallotoxin)] | 2 | 1 | 2 | 1 | 0 | 2 | 
CN[C@@H]1C[C@H]2O[C@@](C)([C@@H]1OC)n1c3ccccc3c3c4c(c5c6ccccc6n2c5c31)C(=O)NC4 [Staurosporine] |  |  |  |  |  |  | Inhibition level, EPHB1 [2]: 2; Inhibition level, MAP3K3 ([3]; Staurosporine 21.5 uM): 2; Inhibition level, LYN [6]: 0
